Data from patent US20170008927A1, “ARTIFICIAL CATALYST SYSTEM SUBSTITUTABLE FOR IN VIVO ACYLATION FUNCTION” (The University of Tokyo, priority 2014, published 2017).

How the values were obtained:
Type in all cases: cell-based, human
[1] = system: MCF7 cells; test: Intracellular localization of FITC compounds, fluorescence microscope, MCF7 cells
Experimental: After compounds having FITC were added to the cells adhering on a glass coverslip, the cells were cultured, washed with PBS, fixed with 3.7% formaldehyde for 10 minutes, and washed with PBS twice.

[2] = system: MCF7 cells; test: Protein acetylation levels in treated MCF7 cells (chromosome and cytoplasm fractions), western blotting; settings: FIG. 6 comparison
Experimental: (§1) Hela cells and MCF7 cells were cultured using Dulbecco's modified Eagle's Medium (DMEM) media supplemented with 10% fetal bovine serum, 100 U/ml of penicillin, and 100 U/ml of streptomycin. The cells were cultured at 37° C. in the presence of 5% CO2.
(§2) The cell fractionation was carried out as follows. Approximately 10^6 cells were detached from a culture dish by a trypsin treatment. After washed with PBS, the cell pellets were suspended in a cooled, cell lysis buffer [50 mM Tris (pH=7.5), 300 mM NaCl, 0.3% Triton X-100, protease inhibitor cocktail, and 1 mM PMSF], and placed on ice for 30 minutes. After the centrifugation (4° C., 1500 rpm, 2 minutes), the supernatant was collected as a cytoplasm fraction. Meanwhile, the pellets were suspended in a cell lysis buffer containing 2 mM MgCl2 and Benzonase (Novagen, 71206), and placed on ice for 30 minutes. Then, 4 mM EDTA was added thereto to stop the reaction. After the centrifugation (4° C., 15000 rpm, 15 minutes), the supernatant was collected as a chromosome fraction.
(§3) Proteins were separated on a 4-20% SDS-PAGE gel, and transferred to a PVDF membrane, followed by blocking with 5% skim milk suspended in TBST for the reaction between the PVDF membrane and primary antibodies. The primary antibodies used were as follows. Anti-Histone H3 (acetyl K122) antibody (ab33309, Abcam), Acetylated-Lysine antibody (#9441, Cell Signaling), Anti-Histone H3 (acetyl K56) antibody (ab76307, Abcam), Anti-acetyl Histone H3 (Lys115) (#07-934, Millipore), Anti-P53 (DO-1) (sc-126, Santa cruz), Anti-Histone H3 (acetyl K9) antibody (ab4441, Abcam), Anti-Histone H3 (acetyl K14) antibody (ab52946, Abcam), Anti-Acetyl-Histone H4 (Ac-Lys16) (H9164, Sigma), Anti-Acetyl-Histone H4 (Ac-Lys5) (SAB4500307, Sigma), anti-acetyl tubulin (T6793, Sigma), Anti-p21/WAF1/Cip1 Antibody (05-655, Millipore), Anti-p27 (Kip1) (04-240, Millipore). […]

[3] = system: hTERT RPE-1 cells; test: Protein acetylation levels in treated hTERT RPE-1 normal cells, western blotting; settings: FIG. 6 comparison
Experimental: as §2
Proteins were separated on a 4-20% SDS-PAGE gel, and transferred to a PVDF membrane, followed by blocking with 5% skim milk suspended in TBST for the reaction between the PVDF membrane and primary antibodies. The primary antibodies used were as follows. Anti-Histone H3 (acetyl K122) antibody (ab33309, Abcam), Acetylated-Lysine antibody (#9441, Cell Signaling), Anti-Histone H3 (acetyl K56) antibody (ab76307, Abcam), Anti-acetyl Histone H3 (Lys115) (#07-934, Millipore), Anti-P53 (DO-1) (sc-126, Santa cruz), Anti-Histone H3 (acetyl K9) antibody (ab4441, Abcam), Anti-Histone H3 (acetyl K14) antibody (ab52946, Abcam), Anti-Acetyl-Histone H4 (Ac-Lys16) (H9164, Sigma), Anti-Acetyl-Histone H4 (Ac-Lys5) (SAB4500307, Sigma), anti-acetyl tubulin (T6793, Sigma), Anti-p21/WAF1/Cip1 Antibody (05-655, Millipore), Anti-p27 (Kip1) (04-240, Millipore). After washing with TBST, the PVDF membrane was treated with a chemilluminescent detection reagent Luminata Forte Western HRP Substrate (Millipore), and the detection was performed using ImageQuant LAS 4000 (GE healthcare life sciences).
MCF7 cells, HeLa cells, and hTERT RPE-1 (hereinafter, RPE-1) cells which are normal cells were treated with an HDAC inhibitor (SAHA). […] On the other hand, there was no change in the acetylation of K56 present in the H3 globular region (FIG. 6).

[4] = system: Hela cells; test: Protein acetylation levels in treated HeLa cells (chromosome and cytoplasm fractions), western blotting; settings: FIG. 6 comparison
Experimental: as §1, §2, §3

`CC(=O)N(OCc1cn(CCOCCOCCOc2cc(C(=O)NCC(=O)N[C@@H](CCCNC(=N)N)C(=O)NC(CCCNC(=N)N)C(=O)N[C@@H](CCCNC(=N)N)C(=O)NC(CCCNC(=N)N)C(=O)N[C@@H](CCCNC(=N)N)C(=O)NC(CCCNC(=N)N)C(=O)N[C@@H](CCCNC(=N)N)C(=O)NC(CCCNC(=N)N)C(N)=O)cc(OCCOCCOCCn3cc(CON(C(C)=O)C(C)=O)nn3)c2OCCOCCOCCn2cc(CON(C(C)=O)C(C)=O)nn2)nn1)C(C)=O` (stereo partly shown) [Compound 3NMD-8R] was tested, and the “intracellular localization (FITC signal)” value [1] was “successfully localized in the nucleus and the chromosomes”.
`O=C(CCCCCCC(=O)Nc1ccccc1)NO` [SAHA] was tested, and the “acetylation of K56, H3 globular region” value [2] was “no change”, the “acetylations of lysines in the tail regions of histones H3 and H4” value (“acetylations of lysines” for short) [2] was “significantly enhanced” and the “tubulin acetylation in the cytoplasm” value [2] was “significantly enhanced”. The “acetylation of K56, H3 globular region” value [3] was “no change”, the “acetylations of lysines” value [3] was “significantly enhanced” and the “tubulin acetylation in the cytoplasm” value [3] was “significantly enhanced”. For the same compound, the “acetylation of K56, H3 globular region” value [4] was “no change”, the “acetylations of lysines” value [4] was “significantly enhanced” and the “tubulin acetylation in the cytoplasm” value [4] was “significantly enhanced”.
